The record followed here is patent US12594336B2, “Trace element solution” (WARBURTON TECHNOLOGY LIMITED, priority 2012, dated 2026).

Series [1] can be described thus: Feasibility study: incorporation/solubilisation of stabilizers in the EDTA-complexed trace element solution.
Text: Incorporation of vitamin B12 with different stabilizers was screened.
The following concentrations of butaphosphan have been tested:
A short description of series [2]: Physical stability study (visual inspection) of stabilizer solutions with vitamin B12 at ambient temperature. The series is classed as physicochemical. As to the method:
Based on known injectable processes, with organometallics complex with EDTA, incorporation of vitamin B12 was screened by testing 3 possible different stabilizers. • Second Phase consists in evaluating the physical and chemical stability of the formulations which have been developed during precedent phase with the aim to select stable formulation prototypes.
Physical stability study was performed at 5° C., 25° C./60% RH and 40° C./75% RH: T0, T1, T2 and T3 months. A visual inspection was checked at different periods in order to control the absence of precipitation in the formulations. Assay of vitamin B12 was followed up on stability at 25° C./60% RH and 40° C./75% RH: T0, T3 and T6 months.
Then a quantity of stock solution of vitamin B12 was incorporated in the mix to have a final concentration of 0.15% w/v.
Physical stability study was performed on 5 and 10% w/v butaphosphan (with vitamin B12) solutions at ambient temperature: […]

With `CCCCNC(C)(C)[PH](=O)O` [butaphosphan, (1-Butylamino-1-methyl-ethyl)-phosphinic acid], the “appearance of solution obtained” value in series [1] (butaphosphan 5% w/v) and in series [1] (butaphosphan 10% w/v) was “dark clear solution without particles” each time. For the same molecule, the “physical stability, appearance” value is “dark clear solution” in series [2] (5 and 10% w/v butaphosphan with vitamin B12 (0.15% w/v), ambient temperature, T1 week); “dark clear solution” in series [2] (5 and 10% w/v butaphosphan with vitamin B12 (0.15% w/v), ambient temperature, T2 weeks); “dark clear solution” in series [2] (5 and 10% w/v butaphosphan with vitamin B12 (0.15% w/v), ambient temperature, T4 weeks).
Consider `NCC(=O)O` [glycine, Glycine], for which the “physical stability, appearance” value is reported as “dark clear solution with particle” in series [2] (5 and 15% w/v glycine with vitamin B12, ambient temperature, T1 week); “dark clear solution with particle” in series [2] (5 and 15% w/v glycine with vitamin B12, ambient temperature, T2 weeks); “dark clear solution with particle” in series [2] (5 and 15% w/v glycine with vitamin B12, ambient temperature, T4 weeks).
